Converted amounts (≈) assume the structure as drawn.
Legend:
[1] = tested on: S. aureus RN450; assay: In vitro MIC assay, S. aureus RN450; format: cell-based; conditions: Staphylococcus aureus, broth microdilution, 35° C., 18-24 hours
[2] = tested on: S. aureus MRSA5; assay: In vitro MIC assay, S. aureus MRSA5; format: cell-based; conditions: Staphylococcus aureus, broth microdilution, 35° C., 18-24 hours
[3] = tested on: S. aureus RN4250; assay: In vitro MIC assay, S. aureus RN4250; format: cell-based; conditions: Staphylococcus aureus, broth microdilution, 35° C., 18-24 hours
[4] = tested on: S. pneumoniae 157E; assay: In vitro MIC assay, S. pneumoniae 157E; format: cell-based; conditions: Streptococcus pneumoniae, broth supplemented with lysed horse blood, 35° C., 18-24 hours
[5] = tested on: E. coli (ATCC 25922); assay: In vitro MIC assay, E. coli (ATCC 25922); format: cell-based; conditions: Escherichia coli, ATCC25922; broth microdilution, 35° C., 18-24 hours
[6] = tested on: E. coli MG 1655 DWAK; assay: In vitro MIC assay, E. coli MG 1655 DWAK; format: cell-based; conditions: Escherichia coli, MG1655DWAK; broth microdilution, 35° C., 18-24 hours
Protocol: The following assay was used to determine the efficacy of tetracycline compounds against common bacteria. Serial dilutions of compounds were prepared in microdilution plates using a Tecan robotic workstation. Mueller Hinton broth cultures of gram negative and gram positive strains were grown or adjusted to match the turbidity of a 0.5 McFarland standard. 1:200 dilutions were made in appropriate broth (cation supplemented Mueller Hinton broth or Haemophilus test medium) to allow a final inoculum of 1×10^5 cfu. Lysed horse blood was used to supplement broth for testing S. pneumoniae. The plates were incubated at 35° C. in ambient air for 18-24 hours, read spectrophotometrically, and checked manually for evidence of bacterial growth. Serial dilutions of compounds were also added to Brucella agar supplemented with laked sheep blood for P. acnes tests. A standard inoculum was transferred to the plate using a stainless steel replicator. After 48 hours of anaerobic incubation at 35° C. plates were examined. The MIC was defined as the lowest concentration of the tetracycline compound that inhibits growth. Table 3 gives the MIC (μg/mL) of selected substituted tetracycline compounds against a variety of gram positive and gram negative bacteria.

[7] = tested on: P. aeruginosa K1033; assay: In vitro MIC assay, P. aeruginosa K1033; format: cell-based; conditions: Pseudomonas aeruginosa, broth microdilution, 35° C., 18-24 hours
[8] = tested on: H. influenza (ATCC 49247); assay: In vitro MIC assay, H. influenza (ATCC 49247); format: cell-based; conditions: read-out: MIC H. influenza (ATCC 49247)
[9] = tested on: B. fragilis (ATCC 25285); assay: In vitro MIC assay, B. fragilis (ATCC 25285); format: cell-based; conditions: Bacteroides fragilis, ATCC25285
[10] = tested on: B. theraiotaomicron (ATCC 29741); assay: In vitro MIC assay, B. theraiotaomicron (ATCC 29741); format: cell-based
[11] = tested on: P. acnes (ATCC 6919); assay: In vitro MIC assay, P. acnes (ATCC 6919); format: cell-based; conditions: Cutibacterium acnes, ATCC6919; Brucella agar with laked sheep blood, 48 hours anaerobic, 35° C.
[12] = tested on: P. acnes (ATCC 11827); assay: In vitro MIC assay, P. acnes (ATCC 11827); format: cell-based; conditions: Cutibacterium acnes, ATCC11827; Brucella agar with laked sheep blood, 48 hours anaerobic, 35° C.
[13] = tested on: P. acnes (PBS 1073); assay: In vitro MIC assay, P. acnes (PBS 1073); format: cell-based; conditions: Cutibacterium acnes; Brucella agar with laked sheep blood, 48 hours anaerobic, 35° C.
[14] = tested on: P. acnes (PBS 1074); assay: In vitro MIC assay, P. acnes (PBS 1074); format: cell-based; conditions: Cutibacterium acnes; Brucella agar with laked sheep blood, 48 hours anaerobic, 35° C.
[15] = tested on: P. acnes (ATCC 1077); assay: In vitro MIC assay, P. acnes (ATCC 1077); format: cell-based; conditions: Cutibacterium acnes, ATCC1077; Brucella agar with laked sheep blood, 48 hours anaerobic, 35° C.
[16] = tested on: P. acnes (PBS 1080); assay: In vitro MIC assay, P. acnes (PBS 1080); format: cell-based; conditions: Cutibacterium acnes; Brucella agar with laked sheep blood, 48 hours anaerobic, 35° C.
[17] = tested on: P. acnes (PBS 994); assay: In vitro MIC assay, P. acnes (PBS 994); format: cell-based; conditions: Cutibacterium acnes; Brucella agar with laked sheep blood, 48 hours anaerobic, 35° C.
[18] = tested on: P. granulosum (PBS 1048); assay: In vitro MIC assay, P. granulosum (PBS 1048); format: cell-based
[19] = tested on: P. granulosum (PBS 1098); assay: In vitro MIC assay, P. granulosum (PBS 1098); format: cell-based
[20] = tested on: E. coli translation; assay: In vitro translation assay for inhibition of bacterial protein synthesis (E. coli S30 Extract System, luciferase); format: biochemical; conditions: 37° C., 1 hour, luciferase luminescence
Protocol: As a further measure of antibacterial activity, an E. coli S30 Extract System was used to quantitate inhibition of E. coli translation by tetracycline derivatives. This system contained all required components for translation, including a nucleic acid template which, when translated, produces functional luciferase. The reactions were set up with E. coli S30 extract, amino acids, DNA template and selected tetracycline compounds at concentrations of 100, 50, 25, 10, 5, and 1 μg/ml. The reactions were incubated at 37° C. for 1 hour and analyzed by adding the reaction mix to Steady-Glo Luciferase Assay substrate (Promega, Madison Wis.). Luminescence was measured with the Wallac Victor5 plate reader and inhibition is calculated by comparing luciferase activity in experimental reactions versus controls.

[21] = tested on: carrageenan induced paw edema; assay: Rat model of carrageenan induced paw edema; format: in vivo; conditions: 3 hours after carrageenan injection
Protocol: Carrageenan-induced paw edema represents a commonly used experimental model to assess the anti-inflammatory properties of agents. In this example, male Sprague-Dawley rats (Charles River, Mass.) weighing 175-250 grams were used. Test compounds were administered intraperitoneally 5 minutes or orally 15 minutes before a subplantar injection of carrageenan (5 mg/1 ml) in the rat right hind paw. The paw volume (ml) was monitored with a plethysmometer (Water Plethysmometer) at time of carrageenan injection (baseline) and 3 hours after carrageenan injection. […] Both results were statistically significant with a p<0.1 level by Kruskal-Wallis One Way ANOVA, ChiSquare. There were approximately four rats per group.

[22] = tested on: COS-1 or CHO cell; assay: Mammalian cell cytotoxicity assay (Resazurin; Alamar Blue); format: cell-based; conditions: COS-1 or CHO cells, 24 hour incubation
Protocol: To predict the in vivo risks associated with the compounds of the invention, a soluble, non-toxic redox dye (“Resazurin”; Alamar Blue) was used to assess a compound's effect on cellular metabolism. COS-1 or CHO cell suspensions were prepared, seeded into 96-well black-walled microtiter plates, and incubated overnight at 37° C., in 5% CO2 and approximately 95% humidity. On the next day, serial dilutions of test drug were prepared and transferred to cell plates. Following a 24 hour incubation period, the media/drug was aspirated, and 50 μL of resazurin was added. After a 2 hour incubation, fluorescence measurements were taken (excitation […], emission 590 nm) and toxic effects in treated versus control cells were compared based on the degree of fluorescence in each well.

[23] = tested on: Mouse 3T3 fibroblast cells; assay: Phototoxicity assay (neutral red); format: cell-based; conditions: 3T3 cells
Protocol: Mouse 3T3 fibroblast cells were harvested and plated at a concentration of 1×10^5 cells/mL. Drug dilutions were made in HBSS and added to the plates. Duplicate plates were then incubated in the dark (for controls), or under UV light (meter reading of 1.6-1.8 mW/cm^2) for 50 minutes. Cells were then washed with HBSS, fresh medium was added, and plates were then incubated overnight. The following day, neutral red was added as an indicator of cell viability and plates were incubated for an additional 3 hours. Cells were then washed with HBSS and a solution of 50% EtOH, 10% glacial acetic acid is added. After a 20 minute incubation period, plates absorbance at 535 nm were read using a Wallac Victor 5 spectrophotometer. The phototoxicity in light-treated and control cultures was then compared.

| Compound | MIC [1] [µg/mL] | MIC [2] [µg/mL] | MIC [3] [µg/mL] | MIC [4] [µg/mL] | MIC [5] [µg/mL] | MIC [6] [µg/mL] | MIC [7] [µg/mL] | MIC [8] [µg/mL] | MIC [9] [µg/mL] | MIC [10] [µg/mL] | MIC [11] [µg/mL] | MIC [12] [µg/mL] | MIC [13] [µg/mL] | MIC [14] [µg/mL] | MIC [15] [µg/mL] | cytotoxicity at 75 μg/mL [22] | phototoxicity at 150 μM, incubated in the dark [23] | other results |
| --- | --- | --- | --- | --- | --- | --- | --- | --- | --- | --- | --- | --- | --- | --- | --- | --- | --- | --- |
| CN(C)c1cccc2c1CC1CC3[C@H](N(C)C)C(O)=C(C(N)=O)C(=O)[C@@]3(O)C(O)=C1C2=O (stereo partly drawn) [Compound A] | 0 to 21 | 44 to 64 (≈ 99.7 to 145 µM) | 0 to 21 | 0 to 21 | 22 to 43 (≈ 49.8 to 97.4 µM) | 0 to 21 | 0 to 21 | 22 to 43 (≈ 49.8 to 97.4 µM) | 0 to 8 | 9 to 27 (≈ 20.4 to 61.2 µM) | 0 to 8 | 0 to 8 | 9 to 27 (≈ 20.4 to 61.2 µM) | 9 to 27 (≈ 20.4 to 61.2 µM) | 9 to 27 (≈ 20.4 to 61.2 µM) | minimal cytotoxicity | not to be appreciably phototoxic | MIC [16]: 9 to 27 µg/mL (≈ 20.4 to 61.2 µM); MIC [17]: 9 to 27 µg/mL (≈ 20.4 to 61.2 µM); MIC [18]: 9 to 27 µg/mL (≈ 20.4 to 61.2 µM); MIC [19]: 9 to 27 µg/mL (≈ 20.4 to 61.2 µM); IC20 [20]: > 100 µM; IC50 [20]: > 100 µM; decrease in paw inflammation relative to the untreated control ([21]; 75 mg/kg IP): 60% |
| CC(=O)c1cccc2c1CC1CC3[C@@H](N(C)C)C(O)=C(C(N)=O)C(=O)[C@@]3(O)C(O)=C1C2=O (stereo partly drawn) [I] | 0 to 21 | 0 to 21 | 0 to 21 | 0 to 21 | 22 to 43 (≈ 49.9 to 97.6 µM) | 0 to 21 | 0 to 21 | 0 to 21 | 0 to 8 | 28 to 32 (≈ 63.6 to 72.7 µM) | 0 to 8 | 0 to 8 | 28 to 32 (≈ 63.6 to 72.7 µM) | 28 to 32 (≈ 63.6 to 72.7 µM) | 28 to 32 (≈ 63.6 to 72.7 µM) | minimal cytotoxicity | not to be appreciably phototoxic | phototoxicity at 30 μM, incubated in the UV light ([23]; UV light 1.6-1.8 mW/cm^2, 30 μM): minimally phototoxic |
| CC(=O)c1cccc2c1CC1CC3[C@H](N(C)C)C(O)=C(C(N)=O)C(=O)[C@@]3(O)C(O)=C1C2=O (stereo partly drawn) [J] | 0 to 21 | 0 to 21 | 0 to 21 | 0 to 21 | 0 to 21 | 0 to 21 | 0 to 21 | 0 to 21 | 0 to 8 | 28 to 32 (≈ 63.6 to 72.7 µM) | 0 to 8 | 0 to 8 | 28 to 32 (≈ 63.6 to 72.7 µM) | 28 to 32 (≈ 63.6 to 72.7 µM) | 28 to 32 (≈ 63.6 to 72.7 µM) | minimal cytotoxicity | not to be appreciably phototoxic | – |
| CN(C)c1ccc(O)c2c1C[C@H]1C[C@H]3[C@H](N(C)C)C(O)=C(C(N)=O)C(=O)[C@@]3(O)C(O)=C1C2=O [Minocycline, reference compound] | – | – | – | – | – | – | – | – | – | – | – | – | – | – | – | – | – | reduced inflammation relative to the untreated control ([21]; 50 mg/kg IP, positive control): 70% |

— patent US20070093455A1, “10-substituted tetracyclines and methods of use thereof” (priority 2005, published 2007)
